# Where two headings read alike, the source gives them in different places.
# Experiments:
# [1] = system: Plasmodium falciparum, Indochina clone W2; experiment: microbe, parasite or virus in culture; settings: for IC50: Plasmodium falciparum
# Description: In the antimalarial experiment with parasites, incorporation of radioactivity from [G-^3 H]-hypoxanthine into nucleic acids served as a measure of parasite proliferation. […] Each data point represents an average of two determinations. In the study of toxicity to human cells, proliferation of cells was determined directly by measuring the number of viable cells per well. […] Each data point represents an average of two determinations. 5-fluoro-orotate (.circle-solid.), 5-fluorouracil (.box-solid.), 5-fluorouridine (.tangle-solidup.), and 5-fluoro-2'-deoxyuridine (.diamond-solid.).
# Half shaded symbols represent overlapping data points.
# 3. Effects of pyrimidine analogues alone or in combination with normal pyrimidine bases or nucleosides or with amino acid derivatives can be tested in malaria parasite-infected erythrocytes. Varying concentrations of pyrimidine analogues in culture medium are added to individual wells of microtitre plates [Desjardins, R. E. et al., Antimicrob. […] Parasitemic erythrocytes in culture medium are added to each well. […] As an alternative to adding a radioactive precursor of nucleic acid biosynthesis, the end point for determining the effects of added drugs can be the incorporation of a radioactive amino acid, e.g., [U-^14 C]-isoleucine, into parasite protein.
# Fluoropyrimidines, dispersed in 25 μl of culture medium, were added to individual wells of a 96-well microtitre plate. […] Finally, the incorporation of 0.5 μCi of [G-^3 H]hypoxanthine (1 Ci/mmol) into nucleic acids in each well was determined; this served as a measure of parasite proliferation.
# [2] = system: HL-60 human promyelocytic leukemia cells; experiment: Toxicity to cultured HL-60 cells, number of viable cells; assay type: cell-based
# Text: (§1) 2. Effects of orotate analogues on cell viability and the ability to synthesize nucleic acids from radioactive precursors, and the rescuing effects of normal pyrimidine bases or nucleosides or amino acid derivatives such as histidinol, can be tested in human-derived tissue culture cell lines. Human HT-1080 human sarcoma cells [Rusheed, S., et al., Cancer, 33:1027-30 (1974)], human diploid IMR-90 cells [Nichols, W. W., et al., Science, 196:60-3 (1977)], human cervical […] HeLa S3 cells [Puck, T. T., et al., J. Exp. Med., 103:273-84 (1956)], HL-60 human myeloid leukemia cells [Collins, S. J., et al., Nature, 270:347-9 (1977)], and mouse leukemia L-1210 cells [Moore, G. E., J. Nat. […] The growth medium most suitable for each cell line can be determined by reference to the publications cited above: briefly, HT-1080 cells are maintained in Eagle's Minimal Essential Medium (EMEM) supplemented with 5% fetal bovine serum (FBS) and 2 mM L-glutamine; IMR-90 cells are grown in EMEM supplemented with 10% FBS, 10 mM Hepes buffer, 0.21% NaHCO3, and 2 mM L-glutamine. […]
# (§2) Toxicity of pyrimidine analogues to cultured human cells is determined as follows. […] Thereafter, the number of cells in each well is determined. […] Cells that grow in suspension (e.g., HL-60 and L-1210 cells) are transferred to centrifuge tubes, pelleted at low speed, washed, and the viability determined as above. […]
# [3] = system: IMR-90 human lung fibroblast cells; experiment: Toxicity to cultured IMR-90 cells, number of viable cells; assay type: cell-based
# Text: as §1, §2
# [4] = system: HeLa S3 human cervix epithelioid carcinoma cells; experiment: Toxicity to cultured HeLa S3 cells, number of viable cells; assay type: cell-based
# Text: as §1, §2
smiles,measurement,setting,value
O=C(O)c1[nH]c(=O)[nH]c(=O)c1F [5-fluoro-orotate],effect of uridine on cytotoxicity towards malarial parasites,"[1]; Indochina clone W-2, 48 h, 1 mM uridine (FIG. 2)",no effect
same,IC50,[1]; W2,6 ± 1.7 nM
same,IC50,"[1]; W2, 48 h",6 nM
same,times more active than chloroquine,[1]; multidrug-resistant Indochina clone,21 times
same,IC50,"[2]; HL-60, with 1 mM uridine, read-out: IC50 With 1 mM Uridine",4500 nM
same,IC50,"[2]; HL-60, without uridine, read-out: IC50 Without Uridine",900 nM
same,IC50,"[3]; IMR-90, with 1 mM uridine, read-out: IC50 With 1 mM Uridine",2200 nM
same,IC50,"[3]; IMR-90, without uridine, read-out: IC50 Without Uridine",1100 nM
same,IC50,"[4]; HeLa S3, with 1 mM uridine, read-out: IC50 With 1 mM Uridine",3500 nM
same,IC50,"[4]; HeLa S3, without uridine, read-out: IC50 Without Uridine",2000 nM

# Reference: patent publication US6159953A, “Anti-malarial composition and method of use” (Catholic University of America, priority 1992, dated 2000)
